Measurements published in PMC7957563, “The Novel benzamide Derivative, VKNG-2, Restores the Efficacy of Chemotherapeutic Drugs in Colon Cancer Cell Lines by Inhibiting the ABCG2 Transporter” (International Journal of Molecular Sciences, 2021).

Target: T1, ABCG2 transporter (Homo sapiens, UniProt Q9UNQ0)
T1 construct: ABCG2-overexpressing cell membranes
T1 sequence (Q9UNQ0 1-655): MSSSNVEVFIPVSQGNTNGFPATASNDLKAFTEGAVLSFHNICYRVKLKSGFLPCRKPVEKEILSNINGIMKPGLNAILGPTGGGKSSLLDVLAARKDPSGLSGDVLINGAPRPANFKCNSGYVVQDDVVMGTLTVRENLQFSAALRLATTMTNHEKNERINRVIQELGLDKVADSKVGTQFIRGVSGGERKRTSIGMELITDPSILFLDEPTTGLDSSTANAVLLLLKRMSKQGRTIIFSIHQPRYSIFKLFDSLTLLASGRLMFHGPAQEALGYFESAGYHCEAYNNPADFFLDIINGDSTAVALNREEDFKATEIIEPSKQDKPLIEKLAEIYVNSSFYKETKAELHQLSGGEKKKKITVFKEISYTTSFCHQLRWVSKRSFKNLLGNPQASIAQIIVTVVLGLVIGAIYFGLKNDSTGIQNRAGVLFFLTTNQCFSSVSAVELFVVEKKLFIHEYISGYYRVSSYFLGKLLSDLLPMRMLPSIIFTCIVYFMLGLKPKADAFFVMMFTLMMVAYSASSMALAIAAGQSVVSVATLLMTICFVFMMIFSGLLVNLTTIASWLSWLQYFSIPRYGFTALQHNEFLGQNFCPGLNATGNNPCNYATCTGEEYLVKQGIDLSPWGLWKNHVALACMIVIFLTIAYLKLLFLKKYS
Assay: vanadate-sensitive ATPase stimulation in ABCG2-overexpressing membranes; [3H]-mitoxantrone efflux inhibition in S1-M1-80 cells
Type: biochemical

CCCc1ccc(NC(=O)c2ccccc2NC(=O)Nc2cccc([N+](=O)[O-])c2)cc1 [VKNG-2, 2-(3-(3-Nitrophenyl)ureido)-N-(4-propylphenyl)benzamide]
EC50: 2.3 µM
